{"source": "patent US5834244A", "about": "“Factor VIIa inhibitors from Kunitz domain proteins” (Genentech, Inc., priority 1995, dated 1998)", "key": {"[1]": {"test_system": "Male New Zealand white rabbits", "test": "Cuticle bleeding time assay", "assay_type": "in vivo, rabbit", "conditions": "for bleeding compared to the saline control (in words): after 10 minutes", "protocol": "(§1) Male New Zealand white rabbits (~4 kg) were anesthetized to surgical anesthesia plane with an IM injection of Ketamine / Xylaxine. The rabbits were placed supine on a restraining board, warmed to 37° C., and the neck and inner thigh area shaved. Teflon catheters were replaced in a marginal ear vein and femoral artery for drug delivery and sample collection respectively. Prior to treatment, blood samples were collected for coagulation tests (APTT and PT). Bleeding time was assessed from a cut made in the cuticle portion of a hind limb nail. Incisions were made in the neck region and the entire left common carotid artery and its branches were surgically isolated. An ultrasonic flow probe (Transonics®) was placed on the common carotid approximately 5 cm caudal to the common--internal bifurcation. After blood flow reached a stable baseline, drugs (saline or test compounds) were delivered via the marginal ear vein. A deflated embolectomy catheter (Fogarty®, 3F) was then introduced into the lumen of the common via an incision in the lingual branch. Blood flow through the artery was stopped briefly while the catheter was introduced and loosely secured with 2-0 silk tie at the incision site. After the catheter was in place and secure, blood flow was restored. The deflated balloon was advanced to within 2 mm of the flow probe and inflated with saline until resistance of the vessel wall was felt. The catheter was pulled back with a steady motion to the first branch and then deflated. This procedure was repeated a total of six times for each experimental animal, after which the catheter was removed. […] Over 40 minutes, blood samples were taken for APTT and PT measurements, cuticle bleeding times were assessed and blood flow through the carotid monitored. Duration of patency was defined as the total amount of time (maximum=40 minutes) that any measurable blood flow is detected in the artery. Patency rate refers to the percentage of animals tested who had carotid artery blood flow ≥5 minutes. At the end of the experiment the rabbit was euthanized and the carotid artery removed and opened. If any thrombus was present, it was removed, blotted and the weight recorded.\nTable 3 below describes the results of the cuticle bleeding time assay at 10 minutes after dosing."}, "rabbit plasma [2]": {"test_system": "rabbit plasma", "test": "PT clotting time in rabbit plasma", "assay_type": "biochemical", "conditions": "40 μM", "protocol": "(§2) Samples of rabbit plasma were assayed using an MLA 800 coagulometer and Dade reagents. Actin FS® was the activator in the APTT assay. Rabbit Thromboplastin with Ca++ was used for the PT assays; the rabbit thromboplastin was diluted two-fold. All mutant inhibitors tested prolonged clotting by at least one fold. […] A greater than 10 fold prolongation of the clotting time at 40μM was observed."}, "TF-FVIIa": {"molecular_target": "T1, TF-FVIIa (Homo sapiens, UniProt P08709)", "T1 construct": "is generated by proteolysis of a single peptide bond from its zymogen Factor VII (FVII); purchased Haematologic Technologies Inc. (FVIIa); TF1-243 made in house in E. coli; host or cells: E. coli (TF1-243)", "T1 sequence (P08709 213-466 limits assumed)": "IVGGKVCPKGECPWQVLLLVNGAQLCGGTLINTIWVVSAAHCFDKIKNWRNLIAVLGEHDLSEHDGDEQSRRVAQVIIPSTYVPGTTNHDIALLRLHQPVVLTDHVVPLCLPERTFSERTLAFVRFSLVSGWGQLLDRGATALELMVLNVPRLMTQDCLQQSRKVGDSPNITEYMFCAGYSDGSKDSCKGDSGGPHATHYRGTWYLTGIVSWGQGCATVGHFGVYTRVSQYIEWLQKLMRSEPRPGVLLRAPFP", "T1 sequence (P08709 61-212 limits assumed)": "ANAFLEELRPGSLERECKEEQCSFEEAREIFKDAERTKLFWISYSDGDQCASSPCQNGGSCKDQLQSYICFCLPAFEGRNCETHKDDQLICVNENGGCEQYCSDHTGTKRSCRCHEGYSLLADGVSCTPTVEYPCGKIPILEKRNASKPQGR", "T1 sequence (P13726 33-275 partner limits assumed)": "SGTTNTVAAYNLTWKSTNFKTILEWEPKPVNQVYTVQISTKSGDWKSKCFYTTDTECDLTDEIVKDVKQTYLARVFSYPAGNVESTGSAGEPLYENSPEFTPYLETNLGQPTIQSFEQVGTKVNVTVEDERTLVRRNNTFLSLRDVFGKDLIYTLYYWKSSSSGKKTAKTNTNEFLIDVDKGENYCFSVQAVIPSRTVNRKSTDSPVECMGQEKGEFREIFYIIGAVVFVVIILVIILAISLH", "test": "Enzyme inhibition assay, apparent equilibrium dissociation constant (Ki*) with TF-FVIIa", "assay_type": "biochemical", "protocol": "Aliquots (25 μL) from each well of a microtiter plate containing the serially diluted inhibitors were transferred into new microtiter plates, each containing a different protease (100 μL) in the appropriate buffer. The proteases tested (protease concentration, buffer, substrate) were FVIIa (10 nM, Buffer A, 0.7 mM S2366), FXIa (1.0 nM, Buffer B containing 1 mg/ml BSA, 0.7 mM S2366), plasma kallikrein (3.5 nM, Buffer B, 0.5 mM S2302), and plasmin (15 nM, Buffer B, 1 mM S2251)."}, "[3]": {"test_system": "Male New Zealand white rabbits", "test": "Rabbit deep medial injury model (carotid artery patency, thrombus weight)", "assay_type": "in vivo", "conditions": "for Duration (Min.) of patency / Clot (mps): mean ± sem", "protocol": "as §1"}, "normal human plasma": {"test_system": "normal human plasma", "test": "Activated partial thromboplastin time (APTT) assay, initiated by ellagic acid", "assay_type": "biochemical", "protocol": "For the activated partial thromboplastin time (APTT) assays, the activation time was set at 120 sec and acquisition time at 300 to 600 sec depending on the expected outcome of the assay. Citrated normal human plasma and inhibitor were incubated together. The sample (plasma and inhibitor) and activator (Instrumentation Laboratories Ellagic acid/Phospholipid mix Test Reagent) were automatically pipetted and incubated together for 2 min at 37° C., then CaCl2 was added and clotting time determined by means of optical assessment. The total incubation time of inhibitor with plasma was ca. 3 min before addition of activator, and 5 min before addition of CaCl2."}, "rabbit plasma [4]": {"test_system": "rabbit plasma", "test": "APTT clotting time in rabbit plasma", "assay_type": "biochemical", "conditions": "40 μM", "protocol": "as §2"}, "[5]": {"conditions": "Heparin 1: 25 u/kg bolus then 0.5 u/kg/min infusion"}, "[6]": {"conditions": "Heparin 2: 25 u/kg bolus then 1 u/kg/min infusion"}}, "note": "Read-outs that look alike come from different tables or passages of the source. Positions of bridges follow the written chain, without caps; N, C: chain ends. No end group written: not given here."}
{"compound": "CC[C@H](C)[C@@H]1NC(=O)[C@H](CC(C)C)NC(=O)[C@H](C)NC(=O)[C@H](CCCNC(=N)N)NC(=O)[C@@H]2CSSC[C@@H]3NC(=O)CNC(=O)CNC(=O)[C@H](Cc4ccc(O)cc4)NC(=O)[C@H](Cc4ccccc4)NC(=O)[C@H](Cc4ccccc4)NC(=O)[C@@H]4CCCN4C(=O)[C@H](C)NC(=O)[C@H](CSSC[C@H](NC(=O)[C@H](Cc4ccc(O)cc4)NC(=O)[C@H](CCC(=O)O)NC(=O)[C@H](CCC(=O)O)NC(=O)[C@H]([C@@H](C)O)NC(=O)[C@H](CC(=O)O)NC(=O)[C@H](Cc4ccccc4)NC(=O)[C@H](CC(N)=O)NC(=O)[C@H](CC(N)=O)NC(=O)[C@H](CCCNC(=N)N)NC(=O)[C@H](CC(N)=O)NC(=O)CNC(=O)[C@H](Cc4ccc(O)cc4)NC3=O)C(=O)N[C@@H](C)C(=O)N[C@@H](C)C(=O)N[C@@H](C(C)C)C(=O)N[C@H](C(=O)NCC(=O)N[C@@H](CO)C(=O)N[C@@H](C)C(=O)O)CSSC[C@H](NC(=O)[C@@H](NC(=O)[C@H](CCC(=O)O)NC(=O)[C@H](CCCNC(=N)N)NC(=O)[C@@H](N)C(C)C)C(C)C)C(=O)N[C@@H](CO)C(=O)N[C@@H](CCC(=O)O)C(=O)N[C@@H](CCC(N)=O)C(=O)N[C@@H](C)C(=O)N[C@@H](CCC(=O)O)C(=O)N3CCC[C@H]3C(=O)NCC(=O)N3CCC[C@H]3C(=O)N2)NC(=O)[C@H](CCCCN)NC(=O)CNC(=O)[C@H](CCC(=O)O)NC(=O)[C@H]([C@@H](C)O)NC(=O)[C@H](C(C)C)NC(=O)[C@H](CC(=O)O)NC(=O)[C@H](Cc2ccccc2)NC(=O)[C@H](Cc2ccc(O)cc2)NC(=O)[C@H](Cc2c[nH]c3ccccc23)NC(=O)[C@H](CCCNC(=N)N)NC(=O)[C@H](CC(C)C)NC1=O", "note": "[TF7I-C]", "values": [{"measurement": "bleeding compared to the saline control (in words)", "setting": "[1]", "result": "did not induce prolonged bleeding"}]}
{"compound": "APPI: Alzheimer's amyloid β-protein precursor inhibitor, wild type Kunitz domain (58 residues, SEQ ID NO: 34) (VREVCSEQAETGPCRAMISRWYFDVTEGKCAPFFYGGCGGNRNNFDTEEYCMAVCGSA)", "values": [{"measurement": "PT, fold increase over baseline", "setting": "rabbit plasma [2]", "result": 1.4, "unit": "fold"}, {"measurement": "inhibition of TF-FVIIa (in words)", "setting": "TF-FVIIa", "result": "moderate inhibitor"}, {"measurement": "Ki", "setting": "TF-FVIIa; FVIIa 10 nM and TF1-243 50 nM, representative of nine (TF7I-C) and seven (APPI) determinations, read-out: Ki* with TF-FVIIa (FIG. 5, representative determination)", "result": 300, "unit": "nM"}, {"measurement": "Ki", "setting": "TF-FVIIa; FVIIa 10 nM, TF1-243, S2366, pH 7.5, read-out: apparent equilibrium dissociation constant Ki* with TF-FVIIa", "result": "301 ± 44", "unit": "nM"}, {"measurement": "Cuticle bleeding time, fold increase over pre dose", "setting": "[1]; rabbit, in vivo, iv, 2 mg/kg", "result": "2.2 ± 0.6", "unit": "fold"}, {"measurement": "Patency (%)", "setting": "[3]; 2 mg/kg IV bolus, animals with carotid blood flow ≥5 minutes", "result": 40, "unit": "%"}, {"measurement": "Duration (Min.) of patency", "setting": "[3]; 2 mg/kg IV bolus, maximum 40 minutes", "result": "13.4 ± 8.5", "unit": "min"}, {"measurement": "Clot (mps)", "setting": "[3]; 2 mg/kg IV bolus, thrombus weight", "result": "49.5 ± 18.2", "unit": "mps"}, {"measurement": "APTT clotting time, fold prolongation", "setting": "normal human plasma; 40 μM inhibitor, uninhibited 31 s", "result": 3.6, "unit": "fold"}, {"measurement": "APTT clotting time, fold prolongation", "setting": "normal human plasma; ca. 7 μM inhibitor", "result": "ca. 3 fold"}, {"measurement": "APTT, fold increase over baseline", "setting": "rabbit plasma [4]", "result": 4.9, "unit": "fold"}]}
{"compound": "Heparin", "values": [{"measurement": "Cuticle bleeding time, fold increase over pre dose", "setting": "[1]; rabbit, in vivo", "result": "1.7 ± 0.4", "unit": "fold"}, {"measurement": "Patency (%)", "setting": "[3]; [5]", "result": 67, "unit": "%"}, {"measurement": "Clot (mps)", "setting": "[3]; [5]", "result": "13.6 ± 4.7", "unit": "mps"}, {"measurement": "Duration (Min.) of patency", "setting": "[3]; [5]", "result": "23.3 ± 6.7", "unit": "min"}, {"measurement": "Patency (%)", "setting": "[3]; [6]", "result": 100, "unit": "%"}, {"measurement": "Clot (mps)", "setting": "[3]; [6]", "result": "19.1 ± 8.5", "unit": "mps"}, {"measurement": "Duration (Min.) of patency", "setting": "[3]; [6]", "result": "35.2 ± 2.2", "unit": "min"}, {"measurement": "patency and clot size compared to the saline control (in words)", "setting": "[3]; rabbit, in vivo", "result": "significantly prolonged patency and reduced clot size"}]}
{"compound": "VREVCSEQAEPGPCRAMMKRWYFDVTEGKCAPFIYGGCYGNRNNFDTEEYCAAVCGSA (disulfide 5-55, 14-38, 30-51) [IV-49C]", "values": [{"measurement": "Cuticle bleeding time, fold increase over pre dose", "setting": "[1]; 10 minutes after dosing, 2 mg/kg IV bolus", "result": "1.0 ± 1.0", "unit": "fold"}, {"measurement": "bleeding compared to the saline control (in words)", "setting": "[1]", "result": "did not induce prolonged bleeding"}]}
